Measured values published in paper PMC11497070 (Chemical Communications (Cambridge, England), 2024).
Non-standard residues stand in square brackets, D forms with d. Residues, ends and D or L forms follow the SMILES beside them. *: point of attachment. Ala(7-MeO-coumarin-4-yl) = COc1ccc2c(C[C@H](N)C(=O)O)cc(=O)oc2c1; X1 = N[C@@H](Cc1ccc(O)cc1)C(=S)N1CCC[C@H]1C(=O)*

Each compound was assayed against T1, DPP-4 (Homo sapiens, UniProt P27487) (assay: DPP-4 proteolysis steady state fluorescence assay with μ-tagged probes). Conditions: 5 μM peptide, 2.31 ng/μL DPP-4, DPBS pH 7.6, 27 °C, fluorescence λex 325 nm / λem 390 nm, average of three replicates.
T1 construct: purchased Sigma Aldrich D3446
T1 sequence (P27487 whole entry): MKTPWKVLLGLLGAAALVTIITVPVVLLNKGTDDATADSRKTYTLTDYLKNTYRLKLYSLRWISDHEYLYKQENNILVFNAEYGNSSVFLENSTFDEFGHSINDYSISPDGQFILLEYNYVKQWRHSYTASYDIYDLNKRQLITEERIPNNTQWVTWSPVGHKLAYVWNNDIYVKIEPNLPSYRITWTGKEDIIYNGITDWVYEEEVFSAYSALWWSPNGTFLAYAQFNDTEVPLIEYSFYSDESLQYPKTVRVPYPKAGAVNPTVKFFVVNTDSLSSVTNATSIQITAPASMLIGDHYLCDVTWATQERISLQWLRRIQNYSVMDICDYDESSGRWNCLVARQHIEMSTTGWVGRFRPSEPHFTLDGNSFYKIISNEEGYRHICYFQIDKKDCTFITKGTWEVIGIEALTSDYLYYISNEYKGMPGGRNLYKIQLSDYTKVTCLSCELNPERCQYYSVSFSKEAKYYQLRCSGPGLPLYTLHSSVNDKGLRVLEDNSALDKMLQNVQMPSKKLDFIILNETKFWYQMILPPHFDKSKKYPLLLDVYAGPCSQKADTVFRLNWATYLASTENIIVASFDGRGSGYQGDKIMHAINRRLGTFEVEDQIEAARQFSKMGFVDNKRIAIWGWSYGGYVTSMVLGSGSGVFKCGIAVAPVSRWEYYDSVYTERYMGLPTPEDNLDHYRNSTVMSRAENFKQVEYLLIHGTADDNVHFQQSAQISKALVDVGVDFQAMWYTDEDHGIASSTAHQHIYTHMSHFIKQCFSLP
Assay type: in vitro ADME
Protocol: Phan et al. Supporting Information
4. DPP-4 Proteolysis Assays (Steady State Assays)
A 19 μL solution of 5.3 μM peptide was incubated in the absence or presence of 1 μL of 46.2 ng/μL DPP-4 (Sigma Aldrich, D3446), to final concentrations of 5 μM peptide and 2.31 ng/μL […]
For the PP-based probes (APLEPμ & ASPLEPμ), […]
additional assays were conducted at higher DPP-4 concentration of 4.62 ng/μL to improve the cleavage rate and kinetics of the thioamide probes (Figure S17B). For the μ-tagged probes, the […]
nm on the Tecan M1000 plate reader. Three replicates were performed for each assay to ensure reproducibility. These primary data are shown. At the end of the plate-reader assay, the sample was diluted to a final volume of 170 μL for validation with HPLC. MALDI MS & HPLC analysis of peptide proteolysis by DPP-4 were also done to confirm the cleavage sites, indicated by the slashes (e.g. YP/SKPµ) as summarized in Figures S14-S17, and Tables S4-S7. A Phenomenex Luna® Omega 5 µm PS C18 100 Å analytical HPLC column was used to analyze all samples using the same gradient of 20-25 % B over 35 minutes (Solvent A: 0.1% TFA in Milli-Q water; Solvent B: 0.1% TFA in acetonitrile).

t1/2 of cleavage by DPP-4 (μ-labeled probe) [min]	Compound
26	COc1ccc2c(C[C@H](NC(=O)[C@@H]3CCCN3C(=O)[C@H](CCCCN)NC(=O)[C@H](CO)NC(=O)[C@@H]3CCCN3C(=S)[C@@H](N)Cc3ccc(O)cc3)C(=O)O)cc(=O)oc2c1 [Y^sPSKPμ] (X1-SKP[Ala(7-MeO-coumarin-4-yl)]-OH)

Same assay, conditions: 5 μM peptide, 2.31 ng/μL DPP-4, DPBS pH 7.6, 27 °C, fluorescence λex 325 nm / λem 390 nm, three replicates

cleaved fold slower than the native NPY1–5 probe Y^SPSKPμ [fold]	Compound
3	CC[C@H](C)[C@H](NC(=O)[C@@H]1CCCN1C(=S)[C@@H](N)Cc1ccc(O)cc1)C(=O)N[C@@H](CCCCN)C(=O)N1CCC[C@H]1C(=O)N[C@@H](Cc1cc(=O)oc2cc(OC)ccc12)C(=O)O [Y^SPIKPμ] (X1-IKP[Ala(7-MeO-coumarin-4-yl)]-OH)
2	COc1ccc2c(C[C@H](NC(=O)[C@@H]3CCCN3C(=O)[C@H](CCCCN)NC(=O)[C@H](CC(C)C)NC(=O)[C@@H]3CCCN3C(=S)[C@@H](N)Cc3ccc(O)cc3)C(=O)O)cc(=O)oc2c1 [Y^SPLKPμ] (X1-LKP[Ala(7-MeO-coumarin-4-yl)]-OH)

Each compound was assayed on DPP-4 (dipeptidyl Peptidase IV human, recombinant, expressed in Sf9 cells) (assay: 2.31 ng/μL DPP-4 in DPBS buffer and pH 7.6 (PP-based probes also 4.62 ng/μL)). Conditions: 27°C, up to 400 min.

cleaved bond	Compound
P-L	APLEPμ
P-L	A^SPLEPμ
P-I	Y^SPIKPμ
P-S	Y^SPSKPμ

Second part, the compound before the results:

Compound	cleaved bond
YPIKPμ	P-I
YPLKPμ	P-L3
YPSKPμ	P-S
Y^SPLKPμ	P-L3
